Laboratory results reported in US20240115654A1, “INTRAVENOUS ADMINISTRATION OF ENGINEERED ANTIMICROBIAL AMPHIPHILIC PEPTIDES” (priority 2021, published 2024).
≈ marks a conversion by molar mass, not a printed value. Where two headings read alike, the source gives them in different places. Peptide text beside a SMILES is read from it.

Experiments:
Type in all cases: cell-based
[1] = test system: Staphylococcus aureus ATCC 29213 (MSSA; QC); settings: Staphylococcus aureus ATCC 29213 (MSSA; QC)
Method: (§1) Each peptide was formulated in PBS buffer prior to testing. Peptides of SEQ ID NO:5 and SEQ ID NO:8 were brought up in 100% DMSO with 0.002% polysorbate-80 at 1.28 mg/mL (40× the highest final test concentration of 32 mcg/mL). Final test concentration of DMSO was 2.5% in the assay at the first dilution for those two compounds.
(§2) Mueller Hinton II broth (MHB II; BD; Lot Nos. 6258541 and 7143896) was used for MIC testing of aerobic organisms. 0.002% polysorbate 80 (P80) was added to the test medium.
(§3) MIC values were determined using a broth microdilution procedure described by CLSI (1, 3). Automated liquid handlers (Multidrop 384, Labsystems, Helsinki, Finland; Biomek 2000 and Biomek FX, Beckman Coulter, Fullerton CA) were used to conduct serial dilutions and liquid transfers.
(§4) To prepare the drug mother plates, which would provide the serial peptide dilutions for the replicate daughter plates, the wells of columns 2-12 of standard 96-well microdilution plates (Costar 3795) were filled with 150 μl of the designated diluent for each row of peptide. The test articles and comparator compounds (300 μl at 40× the highest concentration to be tested) were dispensed into the appropriate wells in column 1. The Biomek 2000 was then used to make 2-fold serial dilutions in the mother plates from column 1 through column 11. The wells of Column 12 contained no drug and served as the organism growth control wells for the assay.
(§5) The daughter plates were loaded with 185 μL per well of MHB II using the Multidrop 384. The daughter plates were completed on the Biomek FX instrument which transferred 5 uL of peptide solution from each well of a mother plate to the corresponding well of each daughter plate in a single step. A standardized inoculum of each test organism was prepared per CLSI methods. The inoculum for each organism was dispensed into sterile reservoirs divided by length (Beckman Coulter), and the Biomek 2000 was used to inoculate the plates. Daughter plates were placed on the Biomek 2000 work surface in reverse orientation so that inoculation took place from low to high drug concentration. The plates were then inoculated with 10 μL of the inoculum resulting in a final cell density of approximately 5×10^5 CFU/mL, per well.
(§6) Plates were stacked 3-4 high, covered with a lid on the top plate, placed in plastic bags, and incubated at 35° C. for 16 to 20 hrs. Following incubation, the microplates were removed from the incubator and viewed from the bottom using a plate viewer. […] The MIC was read and recorded as the lowest concentration of peptide that inhibited visible growth of the organism.

[2] = test system: Staphylococcus aureus NRS382 (USA100; HA-MRSA)
Method: as §1, §2, §3, §4, §5, §6

[3] = test system: Escherichia coli ATCC 35218 (ESBL); settings: Escherichia coli ATCC 35218 (ESBL)
Method: as §1, §2, §3, §4, §5, §6

[4] = test system: Klebsiella pneumoniae ATCC BAA-1705 (KPC)
Method: as §1, §2, §3, §4, §5, §6

[5] = test system: Pseudomonas aeruginosa ATCC BAA-2109 (MDR); settings: Pseudomonas aeruginosa ATCC BAA-2109 (MDR)
Method: as §1, §2, §3, §4, §5, §6

[6] = test system: Enterococcus faecium ATCC 51559 (VRE); settings: Enterococcus faecium ATCC 51559 (VRE)
Method: as §1, §2, §3, §4, §5, §6

[7] = test system: Acinetobacter baumannii ATCC 19606 (non-MDR); settings: Acinetobacter baumannii ATCC 19606 (non-MDR)
Method: as §1, §2, §3, §4, §5, §6

[8] = test system: Streptococcus agalactiae ATCC 13813
Method: as §1, §2, §3, §4, §5, §6

[9] = test system: Escherichia coli ATCC 25922 (QC)
Method: as §1, §2, §3, §4, §5, §6

[10] = test system: Enterococcus faecalis ATCC 700802 (V583 VRE)
Method: as §1, §2, §3, §4, §5, §6

[11] = test system: Staphylococcus aureus ATCC 43300 (MRSA)
Method: as §1, §2, §3, §4, §5, §6

[12] = test system: Streptococcus pyogenes ATCC 49399; settings: Streptococcus pyogenes ATCC 49399
Method: as §1, §2, §3, §4, §5, §6

[13] = test system: Enterococcus faecalis ATCC 29212 (VSE; QC); settings: Enterococcus faecalis ATCC 29212 (VSE; QC)
Method: as §1, §2, §3, §4, §5, §6

[14] = test system: Escherichia coli ATCC BAA-2471 (NDM-1); settings: Escherichia coli ATCC BAA-2471 (NDM-1)
Method: as §1, §2, §3, §4, §5, §6

[15] = test system: Pseudomonas aeruginosa ATCC 27853 (non-MDR; QC)
Method: as §1, §2, §3, §4, §5, §6

[16] = test system: Streptococcus pneumoniae ATCC 49619 (QC); settings: Streptococcus pneumoniae ATCC 49619 (QC)
Method: as §1, §2, §3, §4, §5, §6

| Compound | MIC [1] | MIC [3] | MIC [5] | MIC [6] | MIC [7] | MIC [8] | MIC [12] | MIC [13] | MIC [14] | MIC [16] | also measured |
| --- | --- | --- | --- | --- | --- | --- | --- | --- | --- | --- | --- |
| CC(C)[C@H](NC(=O)[C@H](Cc1c[nH]c2ccccc12)NC(=O)[C@H](CCCNC(=N)N)NC(=O)[C@H](CCCNC(=N)N)NC(=O)[C@@H](NC(=O)[C@@H](NC(=O)[C@H](CCCNC(=N)N)NC(=O)[C@@H](NC(=O)[C@@H](NC(=O)[C@H](CCCNC(=N)N)NC(=O)[C@H](CCCNC(=N)N)NC(=O)[C@H](Cc1c[nH]c2ccccc12)NC(=O)[C@@H](NC(=O)[C@H](CCCNC(=N)N)NC(=O)[C@H](CCCNC(=N)N)NC(=O)[C@@H](NC(=O)[C@H](CCCNC(=N)N)NC(=O)[C@H](CCCNC(=N)N)NC(=O)[C@@H](NC(=O)[C@H](Cc1c[nH]c2ccccc12)NC(=O)[C@H](CCCNC(=N)N)NC(=O)[C@@H](N)CCCNC(=N)N)C(C)C)C(C)C)C(C)C)C(C)C)C(C)C)C(C)C)C(C)C)C(=O)N[C@@H](CCCNC(=N)N)C(=O)N[C@@H](CCCNC(=N)N)C(N)=O [SEQ ID NO: 1] (H-RRWVRRVRRVWRRVVRVVRRWVRR-NH2) | 8 µg/mL (≈ 2.35 µM) | 8 µg/mL (≈ 2.35 µM) | 4 µg/mL (≈ 1.18 µM) | 2 µg/mL (≈ 0.588 µM) | 2 µg/mL (≈ 0.588 µM) | 8 µg/mL (≈ 2.35 µM) | 8 µg/mL (≈ 2.35 µM) | 8 µg/mL (≈ 2.35 µM) | 2 µg/mL (≈ 0.588 µM) | 16 µg/mL (≈ 4.71 µM) | MIC ([2]; USA100): 4 µg/mL (≈ 1.18 µM); MIC ([4]; ATCC BAA-1705): 8 µg/mL (≈ 2.35 µM); MIC ([9]; ATCC 25922): 4 µg/mL (≈ 1.18 µM); MIC ([10]; ATCC 700802): 4 µg/mL (≈ 1.18 µM); MIC ([11]; ATCC 43300): 4 µg/mL (≈ 1.18 µM); MIC ([15]; ATCC 27853): 8 µg/mL (≈ 2.35 µM) |
| Colistin [reference compound] | >32 µg/mL | 0.12 µg/mL | 0.12 µg/mL | >32 µg/mL | 0.25 µg/mL | >32 µg/mL | >32 µg/mL | >32 µg/mL | 0.06 µg/mL | >32 µg/mL | MIC ([2]; Staphylococcus aureus NRS382 (USA100; HA-MRSA)): >32 µg/mL; MIC ([4]; Klebsiella pneumoniae ATCC BAA-1705 (KPC)): 0.12 µg/mL; MIC ([9]; Escherichia coli ATCC 25922 (QC)): 0.12 µg/mL; MIC ([10]; Enterococcus faecalis ATCC 700802 (V583 VRE)): >32 µg/mL; MIC ([11]; Staphylococcus aureus ATCC 43300 (MRSA)): >32 µg/mL; MIC ([15]; Pseudomonas aeruginosa ATCC 27853 (non-MDR; QC)): 0.25 µg/mL |
